Measured values taken from paper PMC5681660, “Reduced hepatitis B and D viral entry using clinically applied drugs as novel inhibitors of the bile acid transporter NTCP” (Scientific Reports, 2017).
Counter-ions that a name gives are not always drawn. Like-named read-outs stand apart in the source and are kept apart here.

Tests used:
[1] = molecular target: T1, human NTCP (Homo sapiens, UniProt Q14973); assay: Screening fluorescent competitive Myrcludex B-FITC binding assay (96-well, 10 µM drug)
T1 sequence (Q14973 1-349): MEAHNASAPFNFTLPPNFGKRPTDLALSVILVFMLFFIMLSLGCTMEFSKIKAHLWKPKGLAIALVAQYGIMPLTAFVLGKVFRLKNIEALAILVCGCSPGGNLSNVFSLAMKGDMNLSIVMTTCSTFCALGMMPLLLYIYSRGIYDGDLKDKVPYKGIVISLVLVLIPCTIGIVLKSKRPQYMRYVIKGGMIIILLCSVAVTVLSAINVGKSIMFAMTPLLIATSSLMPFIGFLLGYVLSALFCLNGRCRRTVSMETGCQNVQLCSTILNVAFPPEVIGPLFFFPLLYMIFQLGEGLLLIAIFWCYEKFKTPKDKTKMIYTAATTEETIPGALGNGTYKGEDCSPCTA

[2] = molecular target: T1, human NTCP; assay: Screening taurocholate uptake assay (96-well, [14C]taurocholate, 10 µM drug)
[3] = Prestwick library screen, 10 µM drug, B-score of Myrcludex B-FITC binding
[4] = Prestwick library screen, 10 µM drug, B-score of taurocholate uptake
[5] = combined ranking from functional and binding assay B-scores
[6] = screen, 10 µM drug, Myrcludex B-FITC binding
[7] = combined ranking from functional and binding screening assays
[8] = screen, 10 µM drug, taurocholate uptake
[9] = Prestwick library screen, Myrcludex B-FITC binding, 10 µM drug
[10] = Prestwick library screen, taurocholate uptake, 10 µM drug
[11] = ranking score beside the functional and binding assay B-scores of the screen

For Cc1cc(C2CCCCC2)n(O)c(=O)c1.NCCO [Ciclopirox ethanolamine], the B-score binding assay [1, 3] was 1.631, the B-score functional assay [2, 4] was 0.776 and the Ranking score [2, 5] was 1078.72.

Compound O=C1CCc2cc(OCCCCc3nnnn3C3CCCCC3)ccc2N1 [Cilostazol] has a B-score binding assay [1, 6] of -0.418, a Ranking score [2, 7] of 446.637 and a B-score functional assay [2, 8] of -0.174.

COc1ccc(C[C@@H]2c3cc(OC)c(OC)cc3CC[N@+]2(C)CCC(=O)OCCCCCOC(=O)CC[N@@+]2(C)CCc3cc(OC)c(OC)cc3[C@H]2Cc2ccc(OC)c(OC)c2)cc1OC [Cisatracurium besylate] gave a B-score binding assay [1, 9] of -0.016, a B-score functional assay [2, 10] of 0.628 and a Ranking score [2, 11] of 764.984.

Work on CC[C@H]1OC(=O)[C@H](C)[C@@H](O[C@H]2C[C@@](C)(OC)[C@@H](O)[C@H](C)O2)[C@H](C)[C@@H](O[C@@H]2O[C@H](C)C[C@H](N(C)C)[C@H]2O)[C@](C)(OC)C[C@@H](C)C(=O)[C@H](C)[C@@H](O)[C@]1(C)O [Clarithromycin] yielded a B-score binding assay [1, 6] of 0.501, a Ranking score [2, 7] of 370.485 and a B-score functional assay [2, 8] of -1.781.

Work on O=C([O-])[C@H]1/C(=C/CO)O[C@@H]2CC(=O)N21.[K+] [Clavulanate potassium salt] yielded a B-score binding assay [1, 3] of 2.079, a B-score functional assay [2, 4] of 0.008 and a Ranking score [2, 5] of 886.007.

COc1cc(N)c(Cl)cc1C(=O)NC1CCN(Cc2ccccc2)CC1 [Clebopride maleate] gave a B-score binding assay [1, 9] of -0.092, a B-score functional assay [2, 10] of 0.453 and a Ranking score [2, 11] of 697.485.

Compound Cl.Clc1ccc(Cn2c(CN3CCCC3)nc3ccccc32)cc1 [Clemizole hydrochloride] has a B-score binding assay [1, 6] of -1.618, a Ranking score [2, 7] of 418.626 and a B-score functional assay [2, 8] of 2.268.

In the case of C[N+]12CCC(CC1)C(OC(=O)C(O)(c1ccccc1)c1ccccc1)C2 (stereo not drawn) [Clidinium bromide], the B-score binding assay [1, 3] is reported as 0.853, the B-score functional assay [2, 4] is reported as 0.121 and the Ranking score [2, 5] is reported as 877.232.

With NC1CCN(c2c(F)cc3c(=O)c(C(=O)O)cn(C4CC4)c3c2Cl)C1 (stereo not drawn) [Clinafloxacin] the B-score binding assay [1, 6] was -1.253, the Ranking score [2, 7] was 295.014 and the B-score functional assay [2, 8] was -0.349.

Work on O=P(O)(O)C(Cl)(Cl)P(=O)(O)O [Clodronate] yielded a B-score binding assay [1, 6] of -0.166, a Ranking score [2, 7] of 443.089 and a B-score functional assay [2, 8] of -0.468.

CC(C)/N=c1\cc2n(-c3ccc(Cl)cc3)c3ccccc3nc-2cc1Nc1ccc(Cl)cc1 [Clofazimine] was tested, and the B-score binding assay [1, 6] was -0.74, the Ranking score [2, 7] was 436.188 and the B-score functional assay [2, 8] was -0.006.

CCOC(=O)C(C)(C)Oc1ccc(Cl)cc1 [Clofibrate] was tested, and the B-score binding assay [1, 3] was 0.712, the B-score functional assay [2, 4] was 1.746 and the Ranking score [2, 5] was 1068.42.

Work on CC(C)(Oc1ccc(Cl)cc1)C(=O)O [Clofibric acid] yielded a B-score binding assay [1, 3] of 0.048, a B-score functional assay [2, 4] of 1.224 and a Ranking score [2, 5] of 881.708.

In the case of CCN(CC)CCOc1ccc(C(=C(Cl)c2ccccc2)c2ccccc2)cc1.O=C(O)CC(O)(CC(=O)O)C(=O)O [Clomiphene citrate (Z,E)], the B-score binding assay [1, 9] is reported as -0.291, the B-score functional assay [2, 10] is reported as 0.862 and the Ranking score [2, 11] is reported as 678.964.

In the case of CN(C)CCCN1c2ccccc2CCc2ccc(Cl)cc21 [Clomipramine hydrochloride], the B-score binding assay [1, 9] is reported as -0.277, the B-score functional assay [2, 10] is reported as 4.061 and the Ranking score [2, 11] is reported as 759.266.

For Cc1c(Cl)cccc1Nc1ncccc1C(=O)O.NCCCC[C@H](N)C(=O)O [Clonixin Lysinate], the B-score binding assay [1] was 0, the B-score functional assay [2] was -1.707 and the Ranking score [2] was 317.248.

Cl.Clc1ccc(C(OCCN2CCCCC2)c2ccccc2)cc1 (stereo not drawn) [Cloperastine hydrochloride] gave a B-score binding assay [1, 3] of 0.356, a B-score functional assay [2, 4] of 2.21 and a Ranking score [2, 5] of 1021.61.

COC(=O)[C@H](c1ccccc1Cl)N1CCc2sccc2C1 [Clopidogrel] gave a B-score binding assay [1, 6] of -1.412, a Ranking score [2, 7] of 419.199 and a B-score functional assay [2, 8] of 0.915.

With Nc1cc(C(Cl)=C(Cl)Cl)c(S(N)(=O)=O)cc1S(N)(=O)=O [Clorsulon] the B-score binding assay [1, 9] was -0.388, the B-score functional assay [2, 10] was 0.953 and the Ranking score [2, 11] was 659.111.

Compound C[C@]12C[C@H](O)[C@H]3[C@@H](CCC4=CC(=O)CC[C@@]43C)[C@@H]1CC[C@@H]2C(=O)CO [Corticosterone] has a B-score binding assay [1, 6] of -1.468, a Ranking score [2, 7] of 434.757 and a B-score functional assay [2, 8] of 1.754.

CC(=O)OCC(=O)[C@@]1(O)CC[C@H]2[C@@H]3CCC4=CC(=O)CC[C@]4(C)[C@H]3[C@@H](O)C[C@@]21C [Cortisol acetate] showed a B-score binding assay [1, 9] of 0.369, a B-score functional assay [2, 10] of 0.009 and a Ranking score [2, 11] of 752.137.

Compound C[C@]12CCC(=O)C=C1CC[C@@H]1[C@@H]2C(=O)C[C@@]2(C)[C@H]1CC[C@]2(O)C(=O)CO [Cortisone] has a B-score binding assay [1, 6] of -0.62, a Ranking score [2, 7] of 405.336 and a B-score functional assay [2, 8] of -0.212.

O=C(O)c1cc(=O)c2c(OCC(O)COc3cccc4oc(C(=O)O)cc(=O)c34)cccc2o1 [Cromolyn disodium salt] was tested, and the B-score binding assay [1, 3] was 0.29, the B-score functional assay [2, 4] was 0.688 and the Ranking score [2, 5] was 903.754.

Work on CN(C)CCC=C1c2ccccc2C=Cc2ccccc21 [Cyclobenzaprine hydrochloride] yielded a B-score binding assay [1, 9] of 0.264, a B-score functional assay [2, 10] of -0.009 and a Ranking score [2, 11] of 718.919.

NS(=O)(=O)c1cc2c(cc1Cl)NC(CC1CCCC1)NS2(=O)=O (stereo not drawn) [Cyclopenthiazide] gave a B-score binding assay [1, 9] of 2.395, a B-score functional assay [2, 10] of -0.118 and a Ranking score [2, 11] of 797.145.

In the case of O=P1(N(CCCl)CCCl)NCCCO1 (stereo not drawn) [Cyclophosphamide], the B-score binding assay [1] is reported as 1.227, the B-score functional assay [2] is reported as 0.493 and the Ranking score [2] is reported as 990.921.

Compound CN1CCC(=C2c3ccccc3C=Cc3ccccc32)CC1 [Cyproheptadine hydrochloride] has a B-score binding assay [1, 9] of 0.492, a B-score functional assay [2, 10] of -0.111 and a Ranking score [2, 11] of 690.33.

CC(=O)O[C@]1(C(C)=O)CC[C@H]2[C@@H]3C=C(Cl)C4=CC(=O)[C@@H]5C[C@@H]5[C@]4(C)[C@H]3CC[C@@]21C [Cyproterone acetate] showed a B-score binding assay [1, 9] of 0.796, a B-score functional assay [2, 10] of -0.245 and a Ranking score [2, 11] of 678.19.

With Nc1ccn([C@@H]2O[C@H](CO)[C@@H](O)[C@@H]2O)c(=O)n1 [Cytarabine] the B-score binding assay [1, 3] was 0.655, the B-score functional assay [2, 4] was 0.582 and the Ranking score [2, 5] was 944.957.

N[C@@H]1CON=C1O [D-cycloserine] was tested, and the B-score binding assay [1, 9] was 0.464, the B-score functional assay [2, 10] was -0.174 and the Ranking score [2, 11] was 667.017.

COc1ccccc1N1CCN(CCCCNC(=O)c2ccc3ccccc3c2)CC1.Cl.Cl [DO 897/99] gave a B-score binding assay [1, 6] of -0.125, a Ranking score [2, 7] of 447.929 and a B-score functional assay [2, 8] of -0.485.

In the case of CN(C)/N=N/c1[nH]cnc1C(N)=O [Dacarbazine], the B-score binding assay [1, 3] is reported as 1.762, the B-score functional assay [2, 4] is reported as 0.084 and the Ranking score [2, 5] is reported as 928.431.

C#C[C@]1(O)CC[C@H]2[C@@H]3CCC4=Cc5oncc5C[C@]4(C)[C@H]3CC[C@@]21C [Danazol] gave a B-score binding assay [1, 6] of -0.305, a Ranking score [2, 7] of 407.041 and a B-score functional assay [2, 8] of -0.499.

O=C1CN(/N=C/c2ccc(-c3ccc([N+](=O)[O-])cc3)o2)C(=O)[N-]1.[Na+] [Dantrolene sodium salt] was tested, and the B-score binding assay [1, 6] was -1.319, the Ranking score [2, 7] was 342.783 and the B-score functional assay [2, 8] was -0.011.

With NC(=O)C(c1ccccc1)(c1ccccc1)[C@@H]1CCN(CCc2ccc3c(c2)CCO3)C1 [Darifenacin hydrobromide] the B-score binding assay [1] was 0.023, the B-score functional assay [2] was 2.058 and the Ranking score [2] was 899.12.

In the case of COc1cccc2c1C(=O)c1c(O)c3c(c(O)c1C2=O)C[C@@](O)(C(C)=O)C[C@@H]3O[C@H]1C[C@H](N)[C@H](O)[C@H](C)O1 [Daunorubicin hydrochloride], the B-score binding assay [1, 9] is reported as 6.093, the B-score functional assay [2, 10] is reported as -0.357 and the Ranking score [2, 11] is reported as 740.439.

N=C(N)N1CCc2ccccc2C1 [Debrisoquin sulfate] gave a B-score binding assay [1, 3] of 0.059, a B-score functional assay [2, 4] of 2.382 and a Ranking score [2, 5] of 932.772.

For C[N+](C)(C)CCCCCCCCCC[N+](C)(C)C [Decamethonium bromide], the B-score binding assay [1, 6] was 0.021, the Ranking score [2, 7] was 433.577 and the B-score functional assay [2, 8] was -0.848.

Work on CC(=O)OCC(=O)[C@@]12N=C(C)O[C@@H]1C[C@H]1[C@@H]3CCC4=CC(=O)C=C[C@]4(C)[C@H]3[C@@H](O)C[C@@]12C [Deflazacort] yielded a B-score binding assay [1, 6] of -0.898, a Ranking score [2, 7] of 446.866 and a B-score functional assay [2, 8] of 0.131.

For C[C@H](CCC(=O)O)[C@H]1CC[C@H]2[C@@H]3C(=O)C[C@@H]4CC(=O)CC[C@]4(C)[C@H]3CC(=O)[C@]12C [Dehydrocholic acid], the B-score binding assay [1, 6] was -0.083, the Ranking score [2, 7] was 309.304 and the B-score functional assay [2, 8] was -1.555.

For CC(=O)O[C@H]1CC[C@@]2(C)C(=CC[C@@H]3[C@@H]2CC[C@]2(C)C(=O)CC[C@@H]32)C1 [Dehydroisoandosterone 3-acetate], the B-score binding assay [1, 6] was -0.747, the Ranking score [2, 7] was 438.862 and the B-score functional assay [2, 8] was 0.002.

For CN(CCCCCCCCCCN(C)C(=O)Oc1cccc([N+](C)(C)C)c1)C(=O)Oc1cccc([N+](C)(C)C)c1 [Demecarium bromide], the B-score binding assay [1, 3] was 0.623, the B-score functional assay [2, 4] was 0.13 and the Ranking score [2, 5] was 853.475.
